# According to PubChem BioAssay AID248 (DTP/NCI, 2004):
# Values joined by “and” are separate entries in the source; they are usually repeats but may differ in a detail not shown here. Identical values can stand only once. Toxic doses and inconclusive results are not listed.
# Test system: L1210 leukemia ip in BDF1 mice, survival T/C
# Assay: NCI In Vivo Anticancer Drug Screen. Data for tumor model L1210 Leukemia (intraperitoneal) in B6D2F1 (BDF1) mice
# Conditions: endpoint: mean survival time, higher = longer survival
# How it was run: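 Tumor cells were implanted, animals were treated, and survival was followed. The result divides the treated measurement by the vehicle-control measurement.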
compound,measurement,setting,value
O=C(Nc1ccc(C2=NCCN2)cc1)c1ccc(C(=O)Nc2ccc(C3=NCCN3)cc2)cc1,T/C,"dose: 0.62 mg/kg/injection, schedule: Q#A X Z (ip), vehicle: saline",114 % of control
same,T/C,"dose: 0.63 mg/kg/injection, schedule: Q01DX Z (sc), vehicle: saline",104 % of control
same,T/C,"dose: 1.25 mg/kg/injection, schedule: Q01DX Z (ip), vehicle: other",287 % of control
same,T/C,"dose: 1.25 mg/kg/injection, schedule: Q01DX Z (sc), vehicle: saline",101 % of control
same,T/C,"dose: 1.87 mg/kg/injection, schedule: Q01DX Z (ip), vehicle: carboxymethylcellulose (CMC)",112 % of control
same,T/C,"dose: 1.88 mg/kg/injection, schedule: Q03DX Z (ip), vehicle: saline",103 % of control
same,T/C,"dose: 2.5 mg/kg/injection, schedule: Q01DX Z (ip), vehicle: other",158 % of control
same,T/C,"dose: 2.5 mg/kg/injection, schedule: Q01DX Z (sc), vehicle: saline",104 % of control
same,T/C,"dose: 3.75 mg/kg/injection, schedule: Q01DX Z (ip), vehicle: carboxymethylcellulose (CMC)",121 % of control
same,T/C,"dose: 3.75 mg/kg/injection, schedule: Q03DX Z (ip), vehicle: saline",114 % of control
same,T/C,"dose: 4.4 mg/kg/injection, schedule: Q01DX001 (ip), vehicle: saline",103 % of control
same,T/C,"dose: 4.4 mg/kg/injection, schedule: Q07DX Z (ip), vehicle: saline",103 % of control
same,T/C,"dose: 5.0 mg/kg/injection, schedule: Q01DX005 (iv), vehicle: saline",102 % of control
same,T/C,"dose: 5.0 mg/kg/injection, schedule: Q01DX Z (ip), vehicle: acid diluted with saline",243 % of control
same,T/C,"dose: 5.0 mg/kg/injection, schedule: Q01DX Z (ip), vehicle: other",179 % of control
same,T/C,"dose: 5.0 mg/kg/injection, schedule: Q01DX Z (sc), vehicle: saline",101 % of control
same,T/C,"dose: 5.0 mg/kg/injection, schedule: Q#A X Z (ip), vehicle: saline",194 % of control
same,T/C,"dose: 7.5 mg/kg/injection, schedule: Q03DX Z (ip), vehicle: saline",115 % of control
same,T/C,"dose: 8.8 mg/kg/injection, schedule: Q01DX001 (ip), vehicle: saline",97 % of control and 112 % of control
same,T/C,"dose: 8.8 mg/kg/injection, schedule: Q07DX Z (ip), vehicle: saline",105 % of control
same,T/C,"dose: 10.0 mg/kg/injection, schedule: Q01DX005 (iv), vehicle: saline",103 % of control
same,T/C,"dose: 10.0 mg/kg/injection, schedule: Q01DX Z (ip), vehicle: acid diluted with saline",205 % of control
same,T/C,"dose: 10.0 mg/kg/injection, schedule: Q01DX Z (iv), vehicle: acid diluted with saline",123 % of control
same,T/C,"dose: 10.0 mg/kg/injection, schedule: Q01DX Z (sc), vehicle: acid diluted with saline",175 % of control
same,T/C,"dose: 10.0 mg/kg/injection, schedule: Q#A X Z (ip), vehicle: saline",291 % of control
same,T/C,"dose: 15.0 mg/kg/injection, schedule: Q01DX Z (ip), vehicle: carboxymethylcellulose (CMC)",168 % of control and 269 % of control and 197 % of control
same,T/C,"dose: 15.6 mg/kg/injection, schedule: Q01DX Z (sc), vehicle: other",181 % of control
same,T/C,"dose: 17.5 mg/kg/injection, schedule: Q01DX001 (ip), vehicle: saline",112 % of control and 264 % of control
same,T/C,"dose: 20.0 mg/kg/injection, schedule: Q01DX005 (iv), vehicle: saline",115 % of control
same,T/C,"dose: 20.0 mg/kg/injection, schedule: Q01DX Z (ip), vehicle: acid diluted with saline",158 % of control
same,T/C,"dose: 20.0 mg/kg/injection, schedule: Q01DX Z (ip), vehicle: saline",316 % of control
same,T/C,"dose: 20.0 mg/kg/injection, schedule: Q01DX Z (sc), vehicle: acid diluted with saline",165 % of control
same,T/C,"dose: 20.0 mg/kg/injection, schedule: Q#A X Z (ip), vehicle: saline",178 % of control
same,T/C,"dose: 30.0 mg/kg/injection, schedule: Q01DX Z (ip), vehicle: acid diluted with saline",182 % of control
same,T/C,"dose: 30.0 mg/kg/injection, schedule: Q01DX Z (ip), vehicle: carboxymethylcellulose (CMC)",320 % of control
same,T/C,"dose: 30.0 mg/kg/injection, schedule: Q03DX Z (ip), vehicle: saline",200 % of control
same,T/C,"dose: 31.3 mg/kg/injection, schedule: Q01DX004 (im), vehicle: olive oil, sesame oil, peanut oil",97 % of control
same,T/C,"dose: 31.3 mg/kg/injection, schedule: Q01DX004 (im), vehicle: saline",104 % of control
same,T/C,"dose: 31.3 mg/kg/injection, schedule: Q01DX Z (ip), vehicle: other",112 % of control
same,T/C,"dose: 31.3 mg/kg/injection, schedule: Q01DX Z (sc), vehicle: other",195 % of control
same,T/C,"dose: 35.0 mg/kg/injection, schedule: Q07DX Z (ip), vehicle: saline",160 % of control
same,T/C,"dose: 40.0 mg/kg/injection, schedule: Q01DX Z (ip), vehicle: saline",348 % of control
same,T/C,"dose: 40.0 mg/kg/injection, schedule: Q#A X Z (ip), vehicle: saline",210 % of control
same,T/C,"dose: 60.0 mg/kg/injection, schedule: Q01DX Z (ip), vehicle: acid diluted with saline",153 % of control
same,T/C,"dose: 60.0 mg/kg/injection, schedule: Q01DX Z (ip), vehicle: carboxymethylcellulose (CMC)",246 % of control
same,T/C,"dose: 60.0 mg/kg/injection, schedule: Q03DX Z (ip), vehicle: saline",304 % of control
same,T/C,"dose: 62.5 mg/kg/injection, schedule: Q01DX004 (im), vehicle: olive oil, sesame oil, peanut oil",100 % of control
same,T/C,"dose: 62.5 mg/kg/injection, schedule: Q01DX Z (ip), vehicle: other",111 % of control
same,T/C,"dose: 62.5 mg/kg/injection, schedule: Q01DX Z (sc), vehicle: other",158 % of control
same,T/C,"dose: 70.0 mg/kg/injection, schedule: Q01DX001 (ip), vehicle: saline",156 % of control and 161 % of control
same,T/C,"dose: 70.0 mg/kg/injection, schedule: Q07DX Z (ip), vehicle: saline",205 % of control
same,T/C,"dose: 80.0 mg/kg/injection, schedule: Q01DX Z (ip), vehicle: saline",183 % of control
same,T/C,"dose: 80.0 mg/kg/injection, schedule: Q#A X Z (ip), vehicle: saline",210 % of control
same,T/C,"dose: 120.0 mg/kg/injection, schedule: Q01DX Z (ip), vehicle: acid diluted with saline",176 % of control
same,T/C,"dose: 120.0 mg/kg/injection, schedule: Q01DX Z (ip), vehicle: carboxymethylcellulose (CMC)",115 % of control and 204 % of control
same,T/C,"dose: 120.0 mg/kg/injection, schedule: Q03DX Z (ip), vehicle: saline",243 % of control and 252 % of control
same,T/C,"dose: 125.0 mg/kg/injection, schedule: Q01DX004 (im), vehicle: olive oil, sesame oil, peanut oil",100 % of control
same,T/C,"dose: 125.0 mg/kg/injection, schedule: Q01DX Z (ip), vehicle: other",97 % of control
same,T/C,"dose: 125.0 mg/kg/injection, schedule: Q01DX Z (sc), vehicle: other",161 % of control
same,T/C,"dose: 140.0 mg/kg/injection, schedule: Q01DX001 (ip), vehicle: saline",223 % of control
same,T/C,"dose: 140.0 mg/kg/injection, schedule: Q07DX Z (ip), vehicle: saline",282 % of control
same,T/C,"dose: 160.0 mg/kg/injection, schedule: Q01DX Z (ip), vehicle: saline",174 % of control
same,T/C,"dose: 160.0 mg/kg/injection, schedule: Q#A X Z (ip), vehicle: saline",176 % of control
same,T/C,"dose: 250.0 mg/kg/injection, schedule: Q01DX004 (im), vehicle: olive oil, sesame oil, peanut oil",121 % of control
same,T/C,"dose: 250.0 mg/kg/injection, schedule: Q01DX004 (im), vehicle: saline",204 % of control and 208 % of control
same,T/C,"dose: 250.0 mg/kg/injection, schedule: Q01DX Z (sc), vehicle: other",168 % of control
same,T/C,"dose: 250.0 mg/kg/injection, schedule: Q01DX Z (sc), vehicle: saline",217 % of control
same,T/C,"dose: 280.0 mg/kg/injection, schedule: Q07DX Z (ip), vehicle: saline",250 % of control and 327 % of control
same,T/C,"dose: 320.0 mg/kg/injection, schedule: Q01DX Z (ip), vehicle: saline",162 % of control
same,T/C,"dose: 480.0 mg/kg/injection, schedule: Q03DX Z (ip), vehicle: saline",194 % of control
same,T/C,"dose: 500.0 mg/kg/injection, schedule: Q01DX004 (im), vehicle: saline",262 % of control
same,T/C,"dose: 500.0 mg/kg/injection, schedule: Q01DX Z (sc), vehicle: saline",195 % of control
same,T/C,"dose: 560.0 mg/kg/injection, schedule: Q01DX001 (ip), vehicle: saline",184 % of control and 210 % of control
same,T/C,"dose: 560.0 mg/kg/injection, schedule: Q07DX Z (ip), vehicle: saline",261 % of control
same,T/C,"dose: 640.0 mg/kg/injection, schedule: Q01DX Z (ip), vehicle: saline",124 % of control
same,T/C,"dose: 750.0 mg/kg/injection, schedule: Q01DX Z (sc), vehicle: saline",183 % of control and 290 % of control
same,T/C,"dose: 960.0 mg/kg/injection, schedule: Q03DX Z (ip), vehicle: saline",164 % of control
same,T/C,"dose: 1000.0 mg/kg/injection, schedule: Q01DX004 (im), vehicle: saline",267 % of control
same,T/C,"dose: 1112.0 mg/kg/injection, schedule: Q01DX001 (ip), vehicle: saline",157 % of control
same,T/C,"dose: 1500.0 mg/kg/injection, schedule: Q01DX Z (sc), vehicle: saline",215 % of control
same,T/C,"dose: 18.8 micrograms/kg/injection, schedule: Q01DX Z (ip), vehicle: saline",96 % of control
same,T/C,"dose: 37.5 micrograms/kg/injection, schedule: Q01DX Z (ip), vehicle: saline",96 % of control
same,T/C,"dose: 75.0 micrograms/kg/injection, schedule: Q01DX Z (ip), vehicle: saline",100 % of control
same,T/C,"dose: 150.0 micrograms/kg/injection, schedule: Q01DX Z (ip), vehicle: saline",94 % of control
same,T/C,"dose: 230.0 micrograms/kg/injection, schedule: Q01DX Z (ip), vehicle: carboxymethylcellulose (CMC)",98 % of control
same,T/C,"dose: 460.0 micrograms/kg/injection, schedule: Q01DX Z (ip), vehicle: carboxymethylcellulose (CMC)",118 % of control
same,T/C,"dose: 930.0 micrograms/kg/injection, schedule: Q01DX Z (ip), vehicle: carboxymethylcellulose (CMC)",113 % of control
